The source of these data is publication PMC5986788, “Succinate induces aberrant mitochondrial fission in cardiomyocytes through GPR91 signaling” (Cell Death & Disease, 2018).

The assay deals with T1, G protein-coupled receptor-91 (GPR91) (Rattus norvegicus, UniProt Q6IYF9).
T1 construct: gene Sucnr1
Description: cell-based.

T1 sequence (Q6IYF9 whole entry): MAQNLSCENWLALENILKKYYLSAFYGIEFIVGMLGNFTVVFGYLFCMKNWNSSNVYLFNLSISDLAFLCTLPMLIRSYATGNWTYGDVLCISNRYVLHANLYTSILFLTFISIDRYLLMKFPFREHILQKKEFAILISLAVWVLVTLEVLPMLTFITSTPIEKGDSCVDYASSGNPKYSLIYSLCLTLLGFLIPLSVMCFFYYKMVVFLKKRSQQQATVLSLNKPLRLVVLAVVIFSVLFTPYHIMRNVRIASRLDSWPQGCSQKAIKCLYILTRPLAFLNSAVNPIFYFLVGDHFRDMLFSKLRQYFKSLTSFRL

For `O=C(O)CCC(=O)O` [succinate], the EC50 came to 154 µM.

In general, EC50 refers to the concentration needed to bring the measured effect to its halfway point.
